Test in all cases: Kinase binding assay (kinase-tagged T7 phage, affinity beads, qPCR), Kd
On the technique in general: Quantitative PCR measures a nucleic acid by following its amplification.

One test has as its target T1, FGFR4 (Homo sapiens, UniProt P22455).
T1 construct: made in house; host or cells: E. coli (BL21-derived), T7 phage
Conditions: read-out: FGFR4 (Kd nM). The essentials:
(§1)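 Competition binding of compounds against kinase-tagged T7 phage captured on immobilised biotinylated ligand beads; bead-bound kinase quantified by qPCR of eluates. 11-point 3-fold dilution, 0.9% DMSO final; Kd from Hill fit with slope fixed at −1.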

Another test addresses T2, FGFR2 (Homo sapiens, UniProt P21802).
T2 construct: made in house; host or cells: E. coli (BL21-derived), T7 phage
Conditions: read-out: FGFR2 (Kd nM). The essentials:
as §1

The target of another test is T3, FGFR3 (V555M) (Homo sapiens, UniProt P22607, V555M).
T3 construct: made in house; host or cells: E. coli (BL21-derived), T7 phage
T3 sequence (P22607 23-806 V555M): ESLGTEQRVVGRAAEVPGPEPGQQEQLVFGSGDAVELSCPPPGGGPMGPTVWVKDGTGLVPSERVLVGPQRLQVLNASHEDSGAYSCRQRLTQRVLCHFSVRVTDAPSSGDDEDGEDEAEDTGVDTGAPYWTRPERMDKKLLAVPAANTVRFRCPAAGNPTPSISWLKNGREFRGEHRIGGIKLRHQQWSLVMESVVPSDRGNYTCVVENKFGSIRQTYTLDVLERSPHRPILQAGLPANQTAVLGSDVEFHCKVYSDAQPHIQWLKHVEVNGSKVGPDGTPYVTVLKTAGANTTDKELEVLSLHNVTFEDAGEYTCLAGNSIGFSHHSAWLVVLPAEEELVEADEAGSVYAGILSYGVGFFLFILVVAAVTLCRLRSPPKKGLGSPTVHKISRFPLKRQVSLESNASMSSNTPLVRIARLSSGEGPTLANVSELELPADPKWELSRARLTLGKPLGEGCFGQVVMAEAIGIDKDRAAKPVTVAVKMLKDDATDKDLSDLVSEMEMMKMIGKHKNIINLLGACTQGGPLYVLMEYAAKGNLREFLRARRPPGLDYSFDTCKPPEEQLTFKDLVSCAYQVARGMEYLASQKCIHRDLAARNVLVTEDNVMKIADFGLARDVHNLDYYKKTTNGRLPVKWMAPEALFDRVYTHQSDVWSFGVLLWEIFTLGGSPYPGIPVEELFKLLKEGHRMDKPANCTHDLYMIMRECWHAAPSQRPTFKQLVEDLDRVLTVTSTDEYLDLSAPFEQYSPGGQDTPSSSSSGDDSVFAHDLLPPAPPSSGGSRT
The note with it: V555M mutant; read-out: FGFR3 (V555M) (Kd nM). The gist of the method: as §1

The next test concerns the target T4, FGFR1 (Homo sapiens, UniProt P11362).
T4 construct: made in house; host or cells: E. coli (BL21-derived), T7 phage
The note with it: read-out: FGFR1 (Kd nM). The essentials:
as §1

A further test addresses T5, FGFR3 (Homo sapiens, UniProt P22607).
T5 construct: made in house; host or cells: E. coli (BL21-derived), T7 phage
Conditions: read-out: FGFR3 (Kd nM). The gist of the method: as §1

We go through 18 compounds from patent publication US20250368666A1, “INDAZOLE COMPOUNDS” (TYRA BIOSCIENCES, INC., priority 2022, published 2025).

T2 sequence (P21802 22-821): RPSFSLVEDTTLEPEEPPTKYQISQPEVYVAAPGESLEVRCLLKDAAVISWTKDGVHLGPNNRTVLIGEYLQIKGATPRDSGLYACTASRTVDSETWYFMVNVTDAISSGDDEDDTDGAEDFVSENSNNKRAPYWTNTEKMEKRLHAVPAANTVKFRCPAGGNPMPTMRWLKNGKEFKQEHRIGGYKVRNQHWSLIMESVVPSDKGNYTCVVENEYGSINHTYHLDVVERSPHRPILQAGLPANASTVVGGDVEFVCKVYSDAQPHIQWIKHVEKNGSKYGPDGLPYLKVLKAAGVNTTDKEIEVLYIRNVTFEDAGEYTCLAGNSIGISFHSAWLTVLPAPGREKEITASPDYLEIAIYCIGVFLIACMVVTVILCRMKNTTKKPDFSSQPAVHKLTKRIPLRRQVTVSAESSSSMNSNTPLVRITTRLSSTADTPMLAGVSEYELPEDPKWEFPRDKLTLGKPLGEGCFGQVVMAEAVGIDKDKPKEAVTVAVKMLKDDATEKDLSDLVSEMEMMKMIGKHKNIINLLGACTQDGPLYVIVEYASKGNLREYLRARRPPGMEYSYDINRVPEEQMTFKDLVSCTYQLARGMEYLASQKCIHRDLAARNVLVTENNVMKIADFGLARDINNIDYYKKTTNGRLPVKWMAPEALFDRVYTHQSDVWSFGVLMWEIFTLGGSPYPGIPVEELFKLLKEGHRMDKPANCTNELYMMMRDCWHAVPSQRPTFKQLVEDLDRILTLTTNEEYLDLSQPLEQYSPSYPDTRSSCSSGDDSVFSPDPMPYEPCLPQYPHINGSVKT
T5 sequence (P22607 23-806): as the sequence (P22607 23-806 V555M) above, with M533V counted along it
T1 sequence (P22455 22-802): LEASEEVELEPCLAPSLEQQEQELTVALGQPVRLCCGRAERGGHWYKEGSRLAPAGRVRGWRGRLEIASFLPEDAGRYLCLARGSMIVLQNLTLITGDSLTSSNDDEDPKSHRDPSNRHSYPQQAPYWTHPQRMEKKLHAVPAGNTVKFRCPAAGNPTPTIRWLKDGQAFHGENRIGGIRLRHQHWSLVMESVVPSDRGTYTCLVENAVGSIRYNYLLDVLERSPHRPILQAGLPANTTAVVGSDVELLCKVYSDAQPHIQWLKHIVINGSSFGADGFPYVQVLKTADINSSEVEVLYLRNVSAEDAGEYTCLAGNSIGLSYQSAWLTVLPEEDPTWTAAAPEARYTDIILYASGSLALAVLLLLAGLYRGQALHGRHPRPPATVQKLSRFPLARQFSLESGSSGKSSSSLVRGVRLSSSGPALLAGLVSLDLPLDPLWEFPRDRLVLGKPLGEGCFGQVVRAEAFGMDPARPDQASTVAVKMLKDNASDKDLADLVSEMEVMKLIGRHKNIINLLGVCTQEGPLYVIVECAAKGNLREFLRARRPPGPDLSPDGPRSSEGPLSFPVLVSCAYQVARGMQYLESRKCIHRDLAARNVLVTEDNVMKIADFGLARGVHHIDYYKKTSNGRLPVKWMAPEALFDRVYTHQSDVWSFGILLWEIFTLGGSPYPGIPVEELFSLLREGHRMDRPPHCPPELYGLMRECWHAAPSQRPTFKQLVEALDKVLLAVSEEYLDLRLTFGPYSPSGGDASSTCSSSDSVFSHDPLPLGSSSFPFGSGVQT
T4 sequence (P11362 22-822): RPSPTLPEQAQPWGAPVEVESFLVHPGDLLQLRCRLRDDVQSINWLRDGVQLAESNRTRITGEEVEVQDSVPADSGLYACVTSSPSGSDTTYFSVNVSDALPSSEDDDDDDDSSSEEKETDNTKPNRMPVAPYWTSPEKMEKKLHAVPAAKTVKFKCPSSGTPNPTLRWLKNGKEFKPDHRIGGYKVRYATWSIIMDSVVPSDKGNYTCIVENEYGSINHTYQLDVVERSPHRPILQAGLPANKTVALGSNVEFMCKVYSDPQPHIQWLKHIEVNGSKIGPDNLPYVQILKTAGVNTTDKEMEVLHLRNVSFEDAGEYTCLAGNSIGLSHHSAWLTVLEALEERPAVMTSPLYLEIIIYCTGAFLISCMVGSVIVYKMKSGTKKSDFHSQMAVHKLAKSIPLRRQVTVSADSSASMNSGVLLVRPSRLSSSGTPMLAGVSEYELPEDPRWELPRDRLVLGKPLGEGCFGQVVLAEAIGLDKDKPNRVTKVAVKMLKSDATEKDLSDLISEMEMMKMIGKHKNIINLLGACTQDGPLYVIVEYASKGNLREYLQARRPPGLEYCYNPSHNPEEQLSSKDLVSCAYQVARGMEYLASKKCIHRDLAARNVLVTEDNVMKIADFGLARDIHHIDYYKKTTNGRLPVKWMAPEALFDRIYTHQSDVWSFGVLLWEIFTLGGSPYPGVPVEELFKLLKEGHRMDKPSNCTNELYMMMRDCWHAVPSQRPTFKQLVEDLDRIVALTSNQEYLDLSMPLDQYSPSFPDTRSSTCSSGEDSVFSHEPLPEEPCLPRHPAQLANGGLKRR

In the case of `C[C@@H](Oc1ccc2[nH]nc(-c3cnc(N4CC(C)(CS(C)(=O)=O)C4)c(F)c3)c2c1F)c1c(Cl)cncc1Cl` [Example 196, (R)-5-(1-(3,5-dichloropyridin-4-yl)ethoxy)-4-fluoro-3-(5-fluoro-6-(3-methyl-3-((methyl-sulfonyl)meth-yl)azetidin-1-yl)pyridin-3-yl)-1H-indazole], the Kd – broadly, the equilibrium constant for the complex coming apart – at FGFR4 was 300 to 1000 nM; at FGFR2, greater than 1000 nM; on FGFR3 (V555M), 50 to 300 nM; on FGFR1 it was greater than 1000 nM; at FGFR3 it was 300 to 1000 nM.
On to `CNC1(C)CN(c2ncc(-c3n[nH]c4ccc(O[C@H](C)c5c(Cl)cncc5Cl)c(F)c34)cc2F)C1` [Example 197, (R)-1-(5-(5-(1-(3,5-dichloropyridin-4-yl)ethoxy)-4-fluoro-1H-indazol-3-yl)-3-fluoropyridin-2-yl)-N,3-dimethylazetidin-3-amine], for which the Kd on FGFR4 was 50 to 300 nM; at FGFR2, greater than 1000 nM; on FGFR3 (V555M), 1 to 50 nM; at FGFR1, 300 to 1000 nM; at FGFR3, 50 to 300 nM.
In the case of `C[C@H](Oc1ccc2[nH]nc(-c3cnc(N4CC(C)(N(C)C)C4)c(F)c3)c2c1)c1c(Cl)cncc1Cl` [Example 201, 1-[5-[5-[(1S)-1-(3,5-dichloro-4-pyridyl)ethoxy]-1H-indazol-3-yl]-3-fluoro-2-pyridyl]-N,N,3-trimethyl-azetidin-3-amine], the dissociation constant Kd on FGFR4 fell in the range of 300 to 1000 nM; at FGFR2 it was 300 to 1000 nM; on FGFR3 (V555M) it was 300 to 1000 nM; at FGFR1, 300 to 1000 nM; at FGFR3, 50 to 300 nM.
Turning to `C[C@H](Oc1ccc2[nH]nc(-c3cnc(N4C[C@@H](CS(C)(=O)=O)[C@@H]4C)c(F)c3)c2c1)c1c(Cl)cncc1Cl` [Example 202, 5-((S)-1-(3,5-dichloropyridin-4-yl)ethoxy)-3-(5-fluoro-6-((2S,3R)-2-methyl-3-((meth-ylsulfonyl)meth-yl)azetidin-1-yl)pyridin-3-yl)-1H-indazole], the Kd was 50 to 300 nM at FGFR4; greater than 1000 nM on FGFR2; 1 to 50 nM on FGFR3 (V555M); 300 to 1000 nM on FGFR1; 50 to 300 nM at FGFR3.
As for `C[C@H](Oc1ccc2[nH]nc(-c3cnc(N4C[C@H](CS(C)(=O)=O)[C@H]4C)c(F)c3)c2c1)c1c(Cl)cncc1Cl` [Example 208, 5-((S)-1-(3,5-dichloropyridin-4-yl)ethoxy)-3-(5-fluoro-6-((2R,3S)-2-methyl-3-((meth-ylsulfonyl)meth-yl)azetidin-1-yl)pyridin-3-yl)-1H-indazole], the dissociation constant (Kd) on FGFR4 was 300 to 1000 nM; on FGFR2, greater than 1000 nM; on FGFR3 (V555M), 50 to 300 nM; at FGFR1, greater than 1000 nM; at FGFR3, 50 to 300 nM.
Take `Cc1ncc(Cl)c([C@@H](C)Oc2ccc3[nH]nc(-c4cnc(N5CC(C)(NC(C)C)C5)c(F)c4)c3c2)c1Cl` [Example 221, 1-[5-[5-[(1R)-1-(3,5-dichloro-2-methyl-4-pyridyl)ethoxy]-1H-indazol-3-yl]-3-fluoro-2-pyridyl]-N-isopropyl-3-methyl-azetidin-3-amine]: the Kd at FGFR4, at FGFR2, at FGFR3 (V555M), on FGFR1 and on FGFR3 was 1 to 50 nM throughout.
Consider `C[C@@H](Oc1ccc2[nH]nc(-c3ccc(N4CC(C)(N5CCP(C)(=O)CC5)C4)nc3)c2c1)c1c(Cl)cncc1Cl` [Example 226, (R)-1-(1-(5-(5-(1-(3,5-dichloropyridin-4-yl)ethoxy)-1H-indazol-3-yl)pyridin-2-yl)-3-methylazetidin-3-yl)-4-methyl-1,4-azaphosphinane 4-oxide], for which the Kd at FGFR4, at FGFR2, at FGFR3 (V555M), on FGFR1 and at FGFR3 was 1 to 50 nM throughout.
With `C[C@@H](Oc1ccc2[nH]nc(-c3ccc(N4CC(C)(NCP(C)(C)=O)C4)nc3)c2c1)c1c(Cl)cncc1Cl` [Example 230, 1-[5-[5-[(1R)-1-(3,5-dichloro-4-pyridyl)ethoxy]-1H-indazol-3-yl]-2-pyridyl]-N-(di-methylphosphoryl-methyl)-3-methyl-azetidin-3-amine], the Kd on FGFR4, at FGFR2, at FGFR3 (V555M), on FGFR1 and on FGFR3 was 1 to 50 nM in each case.
As for `C[C@@H](Oc1ccc2[nH]nc(-c3ccc(N4CC(C)(N5C[C@H]6C[C@@H]5CO6)C4)nc3)c2c1)c1c(Cl)cncc1Cl` [Example 231, (1R,4R)-5-(1-(5-(5-((R)-1-(3,5-dichloropyridin-4-yl)ethoxy)-1H-indazol-3-yl)pyridin-2-yl)-3-methylazetidin-3-yl)-2-oxa-5-aza-bicyclo[2.2.1]hep-tane], the Kd at FGFR4, at FGFR2, on FGFR3 (V555M), at FGFR1 and on FGFR3 was 1 to 50 nM each time.
As for `CNC1(C)CN(c2ccc(-c3n[nH]c4ccc(O[C@H](C)c5c(Cl)cncc5Cl)cc34)cn2)C1` [Example 233, (R)-1-(5-(5-(1-(3,5-dichloropyridin-4-yl)ethoxy)-1H-indazol-3-yl)pyridin-2-yl)-N,3-dimethylazetidin-3-amine], the dissociation constant (Kd) at FGFR4, at FGFR2, at FGFR3 (V555M), at FGFR1 and at FGFR3 was 1 to 50 nM each time.
For `C=CCNC1(C)CN(c2ncc(-c3n[nH]c4ccc(O[C@H](C)c5c(Cl)cncc5Cl)cc34)cn2)C1` [Example 234, (R)-N-ally1-1-(5-(5-(1-(3,5-dichloropyridin-4-yl)ethoxy)-1H-indazol-3-yl)pyrimidin-2-yl)-3-methylazetidin-3-amine], the Kd at FGFR4, at FGFR2, on FGFR3 (V555M), on FGFR1 and at FGFR3 was 1 to 50 nM each time.
Consider `C[C@@H](Oc1ccc2[nH]nc(-c3cnc(N4CC(C)(NCC5CC5)C4)nc3)c2c1)c1c(Cl)cncc1Cl` [Example 235, (R)-N-(cyclo-propylmethyl)-1-(5-(5-(1-(3,5-dichloropyridin-4-yl)ethoxy)-1H-indazol-3-yl)pyrimidin-2-yl)-3-methylazetidin-3-amine], for which the Kd at FGFR4, on FGFR2, on FGFR3 (V555M), on FGFR1 and on FGFR3 was 1 to 50 nM throughout.
Turning to `CC(C)NC1(C)CN(c2ncc(-c3n[nH]c4ccc(O[C@H](C)c5c(Cl)cncc5Cl)cc34)cn2)C1` [Example 236, (R)-1-(5-(5-(1-(3,5-dichloropyridin-4-yl)ethoxy)-1H-indazol-3-yl)pyrimidin-2-yl)-N-isopropyl-3-methylazetidin-3-amine], the Kd on FGFR4, at FGFR2, on FGFR3 (V555M), on FGFR1 and on FGFR3 was 1 to 50 nM in each case.
On to `CCNC1(C)CN(c2ccc(-c3n[nH]c4ccc(O[C@H](C)c5c(Cl)cncc5Cl)cc34)cn2)C1` [Example 239, 1-[5-[5-[(1R)-1-(3,5-dichloro-4-pyridyl)ethoxy]-1H-indazol-3-yl]-2-pyridyl]-N-ethyl-3-methyl-azetidin-3-amine], for which the equilibrium dissociation constant (Kd) at FGFR4, on FGFR2, at FGFR3 (V555M), on FGFR1 and on FGFR3 was 1 to 50 nM in each case.
Regarding `C[C@@H](Oc1cc2c(-c3cnc(N4CC(C)(CN5CCCC5)C4)c(C#N)c3)n[nH]c2cc1F)c1c(Cl)cncc1Cl` [Example 317, (R)-5-(5-(1-(3,5-dichloropyridin-4-yl)ethoxy)-6-fluoro-1H-indazol-3-yl)-2-(3-methyl-3-(pyrrolidin-1-ylmethyl)azetidin-1-yl)nicotinonitrile], the dissociation constant (Kd) at FGFR4 lay within 1 to 50 nM; at FGFR2, 50 to 300 nM; on FGFR3 (V555M) it was 1 to 50 nM; at FGFR1, 50 to 300 nM; at FGFR3, 1 to 50 nM.
Regarding `C[C@@H](Oc1ccc2[nH]nc(-c3cnc(N4CC(C)(NCC5CC5)C4)c(C#N)c3)c2c1F)c1c(Cl)cncc1Cl` [Example 318, (R)-2-(3-((cyclopropylmethyl)amino)-3-methylazetidin-1-yl)-5-(5-(1-(3,5-dichloropyridin-4-yl)ethoxy)-4-fluoro-1H-indazol-3-yl)nicotinonitrile], the Kd on FGFR4 was 50 to 300 nM; at FGFR2, greater than 1000 nM; at FGFR3 (V555M) it was greater than 1000 nM; on FGFR1 it was greater than 1000 nM; on FGFR3, greater than 1000 nM.
As to `CC(C)NC1(C)CN(c2ncc(-c3n[nH]c4ccc(O[C@H](C)c5c(Cl)cncc5Cl)c(F)c34)cc2C#N)C1` [Example 319, (R)-5-(5-(1-(3,5-dichloropyridin-4-yl)ethoxy)-4-fluoro-1H-indazol-3-yl)-2-(3-(isopropylamino)-3-methylazetidin-1-yl)nicotinonitrile], the Kd is 50 to 300 nM on FGFR4; greater than 1000 nM at FGFR2; 300 to 1000 nM at FGFR3 (V555M); greater than 1000 nM on FGFR1; greater than 1000 nM at FGFR3.
For the compound `C[C@@H](Oc1ccc2[nH]nc(-c3cnc(N4CC(C)(N5CCCC5)C4)c(C#N)c3)c2c1F)c1c(Cl)cncc1Cl` [Example 322, (R)-5-(5-(1-(3,5-dichloropyridin-4-yl)ethoxy)-4-fluoro-1H-indazol-3-yl)-2-(3-methyl-3-(pyrrolidin-1-yl)azetidin-1-yl)nicotinonitrile], the equilibrium dissociation constant (Kd) at FGFR4 was 50 to 300 nM; on FGFR2, greater than 1000 nM; on FGFR3 (V555M), 300 to 1000 nM; at FGFR1, greater than 1000 nM; on FGFR3, greater than 1000 nM.
